The text below walks through data of patent US20250269062A1, “METHODS FOR IN VIVO EDITING OF A LIVER GENE” (INTELLIA THERAPEUTICS, INC., priority 2021, published 2025).

“Also recorded” adds a separate entry of the source.

Data set [1] is described as follows: Population pharmacokinetics (POPPK) model and simulations of LP01. Also noted: species or system human. The conditions noted are these: interim POPPK model, 15 ATTRv-PN subjects. As for the experimental part: An interim POPPK model was developed for NTLA-2001 analyte LP01 based on a published model using NONMEM software (Version 7.5.0, ICON Clinical Research LLC, Blue Vell, PA). There were 290 observations in 15 ATTRv-PN subjects for this analysis. Parameter values for this model and goodness of fit plots were determined (not shown). The relationship between body weight and the estimated elimination clearance was determined, together with the modeled linear relationship.
FIG. 26 provides the distribution of simulated AUC by weight quartile following administration of 1 mg/kg (left panel) and 80 mg (right panel) NTLA-2001. […] Likewise, following 80 mg NTLA-2001, there is again overlap of simulated LP01 AUC across weight quartiles. […] The ratio of simulated mean exposures in the 4th ([90.3-146] kg) to the 1st weight quartile ([48-71.7] kg) is 1.25 for 1 mg/kg NTLA-2001 and 0.81 for 80 mg NTLA-2001. Simulations identified NTLA-2001 80 mg as the fixed dose equivalent to 1.0 mg/kg.

Data set [2] in a line: Clinical plasma pharmacokinetics of NTLA-2001 components (LC-MS/MS for Lipid A and DMG-PEG2k, qRT-PCR for guide RNA and mRNA). The conditions noted are these: for plasma concentration-time profile: following single IV infusion of NTLA-2001, interim. Type of data set: in vivo, human. The source says:
Plasma pharmacokinetic methods were developed and validated to quantify 4 components of NTLA-2001: ionizable Lipid A (also referred to as LP01), DMG-PEG2k lipid, guide RNA, and mRNA. Lipid A and DMG-PEG2k are quantified by liquid chromatography with tandem mass spectrometry (LC-MS/MS) method. Assay signal [ratio of area under the curve of reference standard over internal standard (IS, using isotopic labelled reference standard)] vs. Concentration response standard curve is used. QCs and unknown sample signal are interpolated from standard curve to determine plasma concentrations. Both guide RNA and mRNA are quantified by qRT-PCR. Signal Cycle Threshold (Ct) vs. Concentration standard curve is used. QCs and unknown samples were interpolated from standard curve to quantify plasma concentrations. Urine PK methods were developed and validated for Lipid A and DMG-PEG2k to characterize excretion.
Preliminary plasma PK data are available for the four components of NTLA-2001 (ionizable Lipid A, DMG-PEG2k lipid, guide RNA, and mRNA). […] FIG. 24. Data for other components not shown.
For orientation: Real-time PCR tracks product formation cycle by cycle.

Turning to `CCCCC/C=C\C/C=C\CCCCCCCC(=O)OCC(COC(=O)CCC(OCCCCCCCC)OCCCCCCCC)COC(=O)OCCCN(CC)CC` (stereo not shown) [LP01, (9Z,12Z)-3-((4,4-bis(octyloxy)butanoyl)oxy)-2-((((3-(diethylamino)propoxy)carbonyl)oxy)methyl)propyl octadeca-9,12-dienoate], the “relationship between body weight and estimated elimination clearance” value in data set [1] is reported as “less than proportional”. Further, the plasma concentration-time profile result in data set [2] was “rapid decline from peak levels, followed by a secondary peak, and then a log-linear phase; also recorded: declines rapidly from peak and then exhibits a secondary peak and log-linear phase”; in data set [2] (listed as NTLA-2001 ionizable lipid), “rapid decline from peak levels followed by a secondary peak and then a log-linear phase”. In data set [2] (human, plasma, single IV infusion of NTLA-2001 at 0.1 to 1.0 mg/kg, range across doses, preliminary, read-out: mean (% CV) terminal t1/2), the half-life was 19.7 to 24.8 h.
